The results in this text go back to US12421254B2, “KRAS modulators and uses thereof” (Quanta Therapeutics, Inc., priority 2023, dated 2025).

Assay [1] concerns phospho-ERK in SW620 (KRAS-G12V) cells. Put plainly: pERK In Cell Western (ICW) assay (Method B), SW620. The conditions noted are these: Homo sapiens, SW-620, 3 h, Table 4. The format is cell-based. The method, then: pERK ICW is a high throughput screening assay to evaluate the cellular potency of mutant KRAS small molecule inhibitors. KRAS mutant cell lines AGS, GP2D (KRAS-G12D) as well as SW620 (KRAS-G12V) were purchased from ATCC and maintained respectively in RPMI/DMEM/RPMI medium supplemented with 10% fetal bovine serum.
Cells grown in exponential phase were trypsinized, resuspended in fresh media, and viable cells were counted using a cell counter with Trypan Blue (BioRad TC20). Cells were seeded into 384-well plate (Greiner 781091) at density of 5,000 cells/well for AGS and 10,000 cells/well for GP2D/SW620 and allowed to grow overnight in a 37° C. CO2 incubator. The next day, compounds were dispensed into wells with a ½ log, 9-point serial dilution using a Tecan D300e dispenser and incubated for 3 hours in a 37° C. CO2 incubator. Cells were then fixed with paraformaldehyde (Electron Microscopy Sciences, 15710, 4% final concentration) for 30 min, permeabilized with wash buffer (1×PBS+0.1% Triton X-100) for 30 min and blocked with Odyssey blocking buffer (Li—COR 927-70001) for 1 hour, all at room temperature (RT). Phospho-ERK antibody (CST 4370L) was diluted 1:500 in Odyssey T20 (PBS) antibody diluent (Li—COR 927-75001) and incubated with cells overnight at 4° C. The next day, plates were washed 5× with wash buffer, incubated with IRDye 800 CW, Goat anti-Rabbit secondary antibody (Li—COR 926-32211, 1:800) and DRAQ5 (CST 4084L, 1:5,000) diluted in Odyssey T20 (PBS) antibody diluent for 1 hour, washed 5×, and imaged on an Odyssey CLx imaging system.
For data analysis, signal intensities from 800 (phosphor-ERK) and 700 (DRAQ5) channels were extracted, and phospho-ERK signals were normalized to DRAQ5 signals for each well and percent of blank control values were computed. Data were then imported into Graphpad Prism to compute half-maximal inhibitory concentrations (IC50) using a 4-parameter variable slope model. Z-factor for each plate was computed from signals derived from wells treated with either DMSO or 5 μM of control compound. AGS pERK ICW (Method B) IC50 (uM) values of selected compounds are depicted in Table 2 with compounds having a value ≥0.001 uM to 0.01 uM as ++++; ≥0.01 uM to 0.1 uM as +++; ≥0.1 uM to 1 uM as ++; ≥1 uM to 10 uM as + and ≥10 uM as NA.

Assay [2] has as its target GST-tagged KRAS-G12V (2-169) (Homo sapiens, UniProt P01116, G12V). Put plainly: Nucleotide exchange assay (NEA), SOS-mediated, HTRF, KRAS G12V. It is filed as biochemical. To be noted: Table 4; IC50 extracted at 90 min; 80 nM SOS. The method, boiled down: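 Exchange onto fluorescent GTP-DY-647P1 (150 nM final) catalysed by 80 nM SOS1cat was followed by Tb-anti-GST HTRF at RT for up to 90 min, after 1 h compound pre-incubation with 0.25 nM GST-tagged KRAS-G12V (2-169), pH 7.3. DMSO = 0%, no-SOS blank = 100%; 4-parameter IC50 taken at 90 min.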
In general terms: TR-FRET usually uses a lanthanide donor and a delayed reading to cut background.

The target in assay [3] is GST-tagged KRAS-G12D (2-169) (Homo sapiens, UniProt P01116, G12D). In words: Nucleotide exchange assay (NEA), SOS-mediated, HTRF, KRAS G12D. It is filed as biochemical. To be noted: Table 4; IC50 extracted at 30 min; 20 nM SOScat; read-out: NEA G12D IC50. The method, boiled down:
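SOS1cat-driven loading of fluorescent GTP-DY-647P1 (150 nM) onto GST-KRAS-G12D (2-169, 0.25 nM) read by time-resolved FRET; SOScat 20 nM, compound preincubated with KRAS 1 h at RT. Signal blanked to no-SOS reactions, normalized to DMSO; IC50 fitted from the 30-min read.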

Sequence of GST-tagged KRAS-G12V (2-169) (P01116 2-169 isoform P01116-2 G12V): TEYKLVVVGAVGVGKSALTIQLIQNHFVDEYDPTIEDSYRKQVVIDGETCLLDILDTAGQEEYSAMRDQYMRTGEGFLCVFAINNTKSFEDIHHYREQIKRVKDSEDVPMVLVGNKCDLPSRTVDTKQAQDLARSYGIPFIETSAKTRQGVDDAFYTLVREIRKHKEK
Sequence of GST-tagged KRAS-G12D (2-169) (P01116 2-169 isoform P01116-2 G12D): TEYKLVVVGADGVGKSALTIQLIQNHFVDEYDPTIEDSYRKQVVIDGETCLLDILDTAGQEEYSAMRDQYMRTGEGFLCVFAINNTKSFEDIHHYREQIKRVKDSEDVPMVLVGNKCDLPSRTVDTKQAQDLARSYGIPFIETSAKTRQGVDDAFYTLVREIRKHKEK

What is called IC50 is the concentration that gives 50% inhibition. As to `N#Cc1c(N)sc2c1C1(CN(c3nc(OC[C@@]45CCCN4C[C@H](F)C5)nc(N(CCO)C4(C#N)CC4)n3)C1)SC2` (racemic) [Compound 240, 2-amino-1′-[4-[(1-cyanocyclopropyl)-(2-hydroxyethyl)amino]-6-[[rac-(2R,8S)-2-fluoro-1,2,3,5,6,7-hexahydropyrrolizin-8-yl]methoxy]-1,3,5-triazin-2-yl]spiro[6H-thieno[3,4-b]thiophene-4,3′-azetidine]-3-carbonitrile], the figures for the IC50 in assay [1], in assay [2] and in assay [3] were 10 to 100 nM, under 10 nM and under 10 nM, respectively.
For the molecule `CC1(O)CCCN(c2nc(OCC34CCCN3C(COc3cc(C(F)(F)F)ncn3)CC4)nc(N3CC4(C3)SCc3sc(N)c(C#N)c34)n2)C1` (single isomer, unassigned) [Compound 256A], the 50% inhibitory concentration (IC50) in assay [1] was 100 to 1000 nM; in assay [2], under 10 nM; in assay [3] it was under 10 nM.
In the case of `C[C@H](c1cccnc1N)N(C)c1nc(OC[C@@]23CCCN2C[C@H](F)C3)nc(N2CCC(c3c(Cl)sc(N)c3C#N)C2)n1` (stereo partly drawn) [Compound 191, 2-amino-4-[1-[4-[[(1R)-1-(2-amino-3-pyridyl)ethyl]-methyl-amino]-6-[[(2R,8S)-2-fluoro-1,2,3,5,6,7-hexahydropyrrolizin-8-yl]methoxy]-1,3,5-triazin-2-yl]pyrrolidin-3-yl]-5-chloro-thiophene-3-carbonitrile], the IC50 was 10 to 100 nM in assay [1], under 10 nM in assay [2] and 10 to 100 nM in assay [3].
On to `N#Cc1c(N)sc2c1C1(CN(c3nc(OC[C@@]45CCCN4C[C@H](F)C5)nc(N4[C@H]5CC[C@]4(CO)COC5)n3)C1)SC2` [Compound 200, 2′-amino-1-(4-(((2R,7aS)-2-fluorotetrahydro-1H-pyrrolizin-7a(5H)-yl)methoxy)-6-((1S,5S)-1-(hydroxymethyl)-3-oxa-8-azabicyclo[3.2.1]octan-8-yl)-1,3,5-triazin-2-yl)-6′H-spiro[azetidine-3,4′-thieno[3,4-b]thiophene]-3′-carbonitrile], for which the IC50 in assay [1] was 100 to 1000 nM; in assay [2], under 10 nM; in assay [3], 10 to 100 nM.
The matching figures for `CCN(c1nc(OC[C@@]23CCCN2C[C@H](F)C3)nc(N2CC3(C2)SCc2sc(N)c(C#N)c23)n1)[C@H](C)C(N)=O` [Compound 235, (2R)-2-[[4-(2-amino-3-cyano-spiro[6H-thieno[3,4-b]thiophene-4,3′-azetidine]-1′-yl)-6-[[(2R,8S)-2-fluoro-1,2,3,5,6,7-hexahydropyrrolizin-8-yl]methoxy]-1,3,5-triazin-2-yl]-ethyl-amino]propanamide]: 100 to 1000 nM, under 10 nM and under 10 nM.
For `CCN(c1nc(OC[C@@]23CCCN2C[C@H](F)C3)nc(N2CC3(C2)SCc2sc(N)c(C#N)c23)n1)[C@H](C)C#N` [Compound 236, 2-amino-1′-[4-[[(1R)-1-cyanoethyl]-ethyl-amino]-6-[[(2R,8S)-2-fluoro-1,2,3,5,6,7-hexahydropyrrolizin-8-yl]methoxy]-1,3,5-triazin-2-yl]spiro[6H-thieno[3,4-b]thiophene-4,3′-azetidine]-3-carbonitrile; formic acid] the same measures were 10 to 100 nM, under 10 nM and under 10 nM.
For `CCN(CC#N)c1nc(OC[C@@]23CCCN2C[C@H](F)C3)nc(N2CC3(C2)SCc2sc(N)c(C#N)c23)n1` [Compound 237, 2-amino-1′-[4-[cyanomethyl(ethyl)amino]-6-[[(2R,8S)-2-fluoro-1,2,3,5,6,7-hexahydropyrrolizin-8-yl]methoxy]-1,3,5-triazin-2-yl]spiro[6H-thieno[3,4-b]thiophene-4,3′-azetidine]-3-carbonitrile] the same measures were 10 to 100 nM, under 10 nM and under 10 nM.
As for `CCN(c1nc(OC[C@@]23CCCN2C[C@H](F)C3)nc(N2CC3(C2)SCc2sc(N)c(C#N)c23)n1)C1(C#N)CC1` [Compound 238, 2-amino-1′-[4-[(1-cyanocyclopropyl)-ethyl-amino]-6-[[(2R,8S)-2-fluoro-1,2,3,5,6,7-hexahydropyrrolizin-8-yl]methoxy]-1,3,5-triazin-2-yl]spiro[6H-thieno[3,4-b]thiophene-4,3′-azetidine]-3-carbonitrile], the IC50 in assay [1] was 10 to 100 nM; in assay [2] it was under 10 nM; in assay [3], under 10 nM.
As to `N#Cc1c(N)sc2c1C1(CN(c3nc(OC[C@@]45CCCN4C[C@H](F)C5)nc(N(CCO)CC4(C#N)CC4)n3)C1)SC2` [Compound 239, 2-amino-1′-[4-[(1-cyanocyclopropyl)methyl-(2-hydroxyethyl)amino]-6-[[(2R,8S)-2-fluoro-1,2,3,5,6,7-hexahydropyrrolizin-8-yl]methoxy]-1,3,5-triazin-2-yl]spiro[6H-thieno[2,3-c]thiophene-4,3′-azetidine]-3-carbonitrile], the 50% inhibitory concentration (IC50) is 100 to 1000 nM in assay [1], under 10 nM in assay [2] and under 10 nM in assay [3].
With `CCN(CC1(C#N)CC1)c1nc(OC[C@@]23CCCN2C[C@H](F)C3)nc(N2CC3(C2)SCc2sc(N)c(C#N)c23)n1` [Compound 241, 2-amino-1′-[4-[(1-cyanocyclopropyl)methyl-ethyl-amino]-6-[[(2R,8S)-2-fluoro-1,2,3,5,6,7-hexahydropyrrolizin-8-yl]methoxy]-1,3,5-triazin-2-yl]spiro[6H-thieno[2,3-c]thiophene-4,3′-azetidine]-3-carbonitrile], the half-inhibitory concentration (IC50) in assay [1] was 100 to 1000 nM; in assay [2], under 10 nM; in assay [3], under 10 nM.
On to `N#CCN(CC(F)F)c1nc(OC[C@@]23CCCN2C[C@H](F)C3)nc(N2CC3(C2)SCc2sc(N)c(C#N)c23)n1` [Compound 242, 2-amino-1′-[4-[cyanomethyl(2,2-difluoroethyl)amino]-6-[[(2R,8S)-2-fluoro-1,2,3,5,6,7-hexahydropyrrolizin-8-yl]methoxy]-1,3,5-triazin-2-yl]spiro[6H-thieno[3,4-b]thiophene-4,3′-azetidine]-3-carbonitrile], for which the 50% inhibitory concentration (IC50) in assay [1] is 10 to 100 nM; in assay [2] it was under 10 nM; in assay [3] it was under 10 nM.
With `C#CCN(CC#N)c1nc(OC[C@@]23CCCN2C[C@H](F)C3)nc(N2CC3(C2)SCc2sc(N)c(C#N)c23)n1` [Compound 243, 2-amino-1′-[4-[cyanomethyl(prop-2-ynyl)amino]-6-[[(2R,8S)-2-fluoro-1,2,3,5,6,7-hexahydropyrrolizin-8-yl]methoxy]-1,3,5-triazin-2-yl]spiro[6H-thieno[3,4-b]thiophene-4,3′-azetidine]-3-carbonitrile], the 50% inhibitory concentration (IC50) in assay [1] is 100 to 1000 nM; in assay [2], under 10 nM; in assay [3] it was under 10 nM.
For `C#CC(C)N(CC#N)c1nc(OC[C@@]23CCCN2C[C@H](F)C3)nc(N2CC3(C2)SCc2sc(N)c(C#N)c23)n1` (stereo partly drawn) [Compound 244, 2-amino-1′-[4-[cyanomethyl(1-methylprop-2-ynyl)amino]-6-[[(2R,8S)-2-fluoro-1,2,3,5,6,7-hexahydropyrrolizin-8-yl]methoxy]-1,3,5-triazin-2-yl]spiro[6H-thieno[3,4-b]thiophene-4,3′-azetidine]-3-carbonitrile], the results for the IC50 in assay [1], in assay [2] and in assay [3] were 100 to 1000 nM, under 10 nM and under 10 nM, respectively.
